In patent US5789434A, “Derivatives of substituted 4-biarylbutyric acid as matrix metalloprotease inhibitors” (priority 1995, dated 1998):

Legend:
MMP-9 = biological target: T1, MMP-9 (Homo sapiens, UniProt P14780); test: Thiopeptilide MMP-9 Inhibition Assay; assay type: biochemical; conditions: for IC50: pH 6.5, x (n) = average of n determinations, read-out: MMP-9: Thiopep. IC50; for inhibition at 5 µM: read-out: MMP-9: Thiopep. % inhibition
T1 construct: from tissue; host or cells: human polymorphonuclear leukocytes (PMN) from whole blood (New York Blood Center), PMA-stimulated supernatant

MMP-3 = biological target: T2, MMP-3 (Homo sapiens, UniProt P08254); test: Primary Thiopeptilide MMP-3 Inhibition Assay; assay type: biochemical; conditions: for IC50: pH 6.5, 13 nM stromelysin, x (n) = average of n determinations, read-out: MMP-3 Thiopep. IC50; for inhibition at 5 µM: read-out: MMP-3 Thiopep. % inhibition
T2 construct: Truncated Prostromelysin-257 was expressed in a soluble form in E.coli; made in house; host or cells: E. coli
T2 sequence (P08254 100-274 limits assumed): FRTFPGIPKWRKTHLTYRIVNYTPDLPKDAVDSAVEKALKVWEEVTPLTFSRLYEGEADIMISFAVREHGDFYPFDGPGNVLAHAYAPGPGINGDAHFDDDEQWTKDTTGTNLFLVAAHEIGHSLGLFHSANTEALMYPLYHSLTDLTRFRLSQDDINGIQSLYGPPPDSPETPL
Method: Enzyme: recombinant stromelysin expressed in E.coli and purified as described above. […] The protocols for the assay of compounds as stromelysin inhibitors was the same as that used for MMP-9 except that the assay buffer was 50 mM MES, pH 6.5 containing 150 mM NaCl, 10 mM CaCl2, 0.005% Brij, and 1% DMSO.

T1 sequence (P14780 107-707 limits assumed): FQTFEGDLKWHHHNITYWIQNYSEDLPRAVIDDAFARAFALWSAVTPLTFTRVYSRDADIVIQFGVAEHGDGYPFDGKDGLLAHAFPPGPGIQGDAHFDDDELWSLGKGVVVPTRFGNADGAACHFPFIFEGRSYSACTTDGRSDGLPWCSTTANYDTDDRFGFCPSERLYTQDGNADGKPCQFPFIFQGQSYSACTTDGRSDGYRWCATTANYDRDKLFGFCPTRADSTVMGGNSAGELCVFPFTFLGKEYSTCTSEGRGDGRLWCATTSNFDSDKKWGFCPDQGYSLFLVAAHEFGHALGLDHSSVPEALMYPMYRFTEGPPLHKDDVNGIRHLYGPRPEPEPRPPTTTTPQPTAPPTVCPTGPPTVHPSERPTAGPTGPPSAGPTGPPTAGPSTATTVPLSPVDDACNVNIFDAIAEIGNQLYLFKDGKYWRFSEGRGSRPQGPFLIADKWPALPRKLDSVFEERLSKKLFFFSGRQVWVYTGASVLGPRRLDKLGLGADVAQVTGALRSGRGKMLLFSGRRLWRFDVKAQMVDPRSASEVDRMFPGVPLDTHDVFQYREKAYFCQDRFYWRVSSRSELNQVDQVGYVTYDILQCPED

SMILES	IC50 (MMP-9) [nM]	IC50 (MMP-3) [nM]	inhibition at 5 µM (MMP-3) [%]	inhibition at 5 µM (MMP-9) [%]
O=C(CC(CSc1ccc(F)cc1)C(=O)O)c1ccc(-c2ccc(Cl)cc2)cc1 (stereo not drawn) [Example 208, [1,1'-Biphenyl]-4-butanoic acid, 4'-chloro-α-[[(4-fluorophenyl)thio]methyl]-γ-oxo-]	1050	140		
O=C(CC(CSc1ccncc1)C(=O)O)c1ccc(-c2ccc(Cl)cc2)cc1 (stereo not drawn) [Example 222, [1,1'-Biphenyl]-4-butanoic acid, 4'-chloro-γ-oxo-α-[(4-pyridinylthio)methyl]-]	1800	610		
O=C(CC(CSc1cccc(Cl)c1)C(=O)O)c1ccc(-c2ccc(Cl)cc2)cc1 (stereo not drawn) [Example 242, [1,1'-Biphenyl]-4-butanoic acid, 4'-chloro-α-[[(3-chlorophenyl)thio]methyl]-γ-oxo-]	1300	490		
CC(C)(CC(=O)O)CC(=O)c1ccc(-c2ccc(Cl)cc2)cc1 [Example 334, [1,1'-Biphenyl]-4-pentanoic acid, 4'-chloro-β,β-dimethyl-δ-oxo-]	6000		42	
O=C(CC(CCCc1ccccc1)C(=O)O)c1ccc(-c2ccc(Cl)cc2Cl)cc1 (stereo not drawn) [Example 77, [1,1'-Biphenyl]-4-butanoic acid, 2',4'-dichloro-γ-oxo-α-(3-phenylpropyl)-]			24	7
CC(C)(C)OC(=O)NCc1ccc(-c2ccc(C(=O)CC(CCCc3ccccc3)C(=O)O)cc2)cc1 (stereo not drawn) [Example 49, [1,1'-Biphenyl]-4-butanoic acid, 4'-[[[(1,1-dimethylethoxy)carbonyl]amino]methyl]-γ-oxo-α-(3-phenylpropyl)-]		750		13
CCOc1ccc(-c2ccc(C(=O)CC(CCCc3ccccc3)C(=O)O)cc2)cc1 (stereo not drawn) [Example 75, [1,1'-Biphenyl]-4-butanoic acid, 4'-ethoxy-γ-oxo-α-(3-phenylpropyl)-]	82	78		
C=Cc1ccc(-c2ccc(C(=O)CC(CCCc3ccccc3)C(=O)O)cc2)cc1 (stereo not drawn) [Example 55, [1,1'-Biphenyl]-4-butanoic acid, 4'-ethenyl-γ-oxo-α-(3-phenylpropyl)-]	110	170		
O=C(CC(CSc1cccc(Br)c1)C(=O)O)c1ccc(-c2ccc(Cl)cc2)cc1 (stereo not drawn) [Example 228, [1,1'-Biphenyl]-4-butanoic acid, α-[[(3-bromophenyl)thio]methyl]-4'-chloro-γ-oxo-]	800	360		
CC(C)(C)c1ccc(-c2ccc(C(=O)CC(CCCc3ccccc3)C(=O)O)cc2)cc1 (stereo not drawn) [Example 48, [1,1'-Biphenyl]-4-butanoic acid, 4'-(1,1-dimethylethyl)-γ-oxo-α-(3-phenylpropyl)-]			53	15
O=C(CCC(CCCc1ccccc1)C(=O)O)c1ccc(-c2ccc(Cl)cc2)cc1 (stereo not drawn) [Example 341, [1,1'-Biphenyl]-4-pentanoic acid, 4'-chloro-δ-oxo-α-(3-phenylpropyl)-]	3800	2400		
O=C(CC(CSCCc1ccccc1)C(=O)O)c1ccc(-c2ccc(Cl)cc2)cc1 (stereo not drawn) [Example 205, [1,1'-Biphenyl]-4-butanoic acid, 4'-chloro-γ-oxo-α-[[(2-phenylethyl)thio]methyl]-]	170	87		
CC(C)(C)c1ccc(SCC(CC(=O)c2ccc(-c3ccc(Cl)cc3)cc2)C(=O)O)cc1 (stereo not drawn) [Example 213, [1,1'-Biphenyl]-4-butanoic acid, 4'-chloro-α-[[(4-(1,1-dimethylethyl)phenyl]thio]methyl]-γ-oxo-]		2500		41
C[C@H](C(=O)c1ccc(-c2ccc(Cl)cc2)cc1)[C@@H](C)C(=O)O (relative stereo) [Example 284, [1,1'-Biphenyl]-4-butanoic acid, 4'-chloro-α,β-dimethyl-γ-oxo-, (R*,S*)-]			10	1
O=C(O)CCC(=O)c1ccc(-c2ccc(F)cc2)cc1 [Example 8, [1,1'-Biphenyl]-4-butanoic acid, 4'-fluoro-γ-oxo-, reference compound]			26	0
